The term IC50 denotes the concentration that inhibits the measured activity by half.

“Also recorded” adds a separate entry of the source.

Holding throughout (format): cell-based
The subject of data set [1] is IL-12p40 production in primary mouse microglia (wild type, SOD1). Description: IL-12p40 ELISA, wild-type and SOD1 primary microglia, LPS stimulation. Particulars: LPS stimulation, 50, 100, 200 nM, wild type and SOD1 cells. How it is done: (§1) The impact of a deuterated CSF-1R inhibitor of this disclosure on cytokine/chemokine production following CSF-1 or LPS stimulation in wild-type versus SOD1 mutant primary microglial cells was examined in the following experiments.
(§2) Methods Treatment and Stimulation of Primary Microglial Cells
(§3) Primary mouse microglia were suspended at a concentration of 5×10^5 cells/mL and 100 μL of this cell suspension was added to each well of a 96-well plate. Microglia cells were allowed to rest overnight at 37° C., 5% CO2. […] Cells were then stimulated with 100 ng/mL recombinant mouse M-CSF for 30 minutes or 10 ng/mL lipopolysaccharide for 24 hours. After stimulation, the culture supernatant was removed from each well and aliquoted into two different 96-well plates for subsequent ELISA assays.
Cell culture supernatants were assayed with the Quantikine Mouse IL-12p40 ELISA kit from R&D Systems (cat #MP400). Samples were diluted 1:10 with Calibrator Diluent. Fifty microliters of Assay Diluent were first added to each well. Fifty microliters of Standards, Assay Control and diluted Sample were then added in singlicate to the wells. The plate was mixed by gently tapping the frame, then sealed with an adhesive strip. The plate incubated for 2 hours at room temperature. […] After incubation, the acid stop solution was added to each well, and the plate was read on the ELISA plate reader at 450 nm.
On the technique in general: In an ELISA, binding on a coated surface is turned into a signal by an enzyme label.

In data set [2] the test system is primary mouse microglia (wild type, SOD1). Description: CellTiter Glo 2.0 viability assay, wild-type and SOD1 primary microglia. Particulars: wild type and SOD1 cells. As for the experimental part: as §1, §2, §3
Cell viability was determined using Promega's Cell Titer Glo Luminescent Cell Viability Assay. […] 100 μL was transferred from each well to a white plate and luminescence was read immediately on the FlexStation3 plate reader.
Primary murine microglia were plated at 50,000 cells per well and rested overnight. […] Cell viability was assessed after 24 hours utilizing Promega's Cell Titer Glo Assay Kit. Both CSF-1 and LPS stimulation induced a slight increase in the cell viability readout versus unstimulated cells (FIGS. 8A-8B and FIGS. 9A-9B).
On the technique in general: In ATP-based viability assays light output follows the ATP content of the culture.

For data set [3], the system named is MCP-1 production in primary murine microglial cells. The data set can be described thus: MCP-1 ELISA, primary mouse microglia after CSF-1 stimulation. To be noted: Mus musculus, Microglia, 24 h, read-out: IC50, MCP-1 production. How it is done: Primary mouse microglia were suspended at a concentration of 5×10^5 cells/mL and 100 μL of this cell suspension was added to the inner 60 wells of three 96-well plates. Microglia cells were allowed to rest overnight at 37° C., 5% CO2. […] Cells were then stimulated with 100 ng/mL recombinant mouse CSF-1 for 24 hours. After stimulation, the culture supernatant was removed from each well and aliquoted into two different 96-well plates for subsequent ELISA assays. Plates were fixed with 4% PFA for future immunocytochemistry analysis.

Data set [4] deals with MCP-1 production in iCell microglia (human iPSC derived microglia). Description: MCP-1 ELISA, iCell human microglia, CSF1 stimulation. To be noted: 1.5625-200 nM, CSF1 100 ng/mL 24 hours. As for the experimental part: iCell microglia (human iPSC derived microglia) were acquired from FujiFilm (cat #C1110, lot #105458). These cells were thawed and maintained in iCell Microglia Complete Media according the manufacture instructions. For this assay, iCell microglia were resuspended at a concentration of 5×10^5 cells/mL and 100 μL of this cell suspension was added to the inner 60 wells of a 96-well plate. iCell microglia were allowed to rest overnight at 37° C., 5% CO2. The following evening, the media was removed and replaced with Neurobasal Media (Gibco, cat #21103049) containing B27 supplement (Gibco, cat #17504044). Again, cells were allowed to rest overnight at 37° C., 5% CO2. […] Cells were then stimulated with 100 ng/mL recombinant human CSF1 for 24 hours. After stimulation, the culture supernatant was removed from each well and aliquoted into two different 96-well plates for subsequent ELISA assays.
Culture supernatants were assayed with the Quantikine Human MCP-1 ELISA kit (R&D Systems, cat #SCP00). […] After incubation, fifty microliters of the acid stop solution was added to each well, and the plate was read on the FlexStation3 Multi-Mode Microplate Reader (Molecular Devices, cat #Flex3) with SoftMax Pro Software at 450 nm.
iCell microglia (human iPSC derived microglia) were plated at 50,000 cells per well and rested overnight. […] Cell viability was assessed utilizing Promega's Cell Titer Glo Assay Kit. […]

In data set [5] the test system is MCP-1 production in primary mouse microglia (wild type, SOD1). The data set can be described thus: MCP-1 ELISA, wild-type and SOD1 primary microglia, CSF-1 stimulation. To be noted: CSF-1 stimulation, 50, 100, 200 nM, wild type and SOD1 cells. As for the experimental part: as §1, §2, §3
Culture supernatants were assayed with the Quantikine Mouse MCP-1 ELISA kit from R&D Systems (cat #SMJE00B). Samples were diluted 1:10 with Calibrator Diluent. Fifty microliters of Assay Diluent were first added to each well. Fifty microliters of Standards, Assay Control and diluted Sample were then added to the wells. The plate was mixed by gently tapping the frame, then sealed with an adhesive strip. The plate incubated for 2 hours at room temperature. […] After incubation, the acid stop solution was added to each well, and the plate was read on the ELISA plate reader at 450 nm.

Turning to `[2H]c1nc2cccnc2n1Cc1cc(OC)c2c(c1)O[C@@H](C)[C@H](c1ccc(OC)nc1)O2` [Compound 6, 3-(((2S,3S)-8-methoxy-2-(6-methoxypyridin-3-yl)-3-methyl-2,3-dihydrobenzo[b][1,4]dioxin-6-yl)methyl)-3H-imidazo[4,5-b]pyridine-2-d], in data set [1], the IL12-p40 production entry is on record as “significantly reduced IL12-p40 production in a concentration dependent manner”. Further, the cell viability result is on record as “no toxic effect on microglia at the concentrations assessed; also recorded: slightly reduced the CSF-1-induced increase in cell viability” in data set [2] (CSF-1 stimulation, 50, 100, 200 nM) and “no deleterious effect on cell viability” in data set [2] (LPS stimulation, 50, 100, 200 nM). The IC50 in data set [3] was 23.2 nM. For the same compound, the MCP1 production result in data set [4] is recorded as “significantly reduced MCP1 production in a concentration dependent manner”. For the same compound, in data set [5], the MCP-1 production entry is recorded as “significantly reduced MCP-1 production in a concentration dependent manner”.

The values are drawn from patent US11530216B2, “Deuterated colony stimulating factor-1 receptor (CSF-1R) inhibitors” (Genzyme Corporation, priority 2020, dated 2022).
